The values that follow come from the RepoRT retention time repository.

This data set in a line: Waters ACQUITY UPLC BEH C18, 100 × 2.1 mm, 1.7 µm, 40 °C, 0.3 to 0.4 mL/min, estimated dead time 0.63 min; A: water + 0.1% formic acid; B: methanol + 0.1% formic acid; gradient (min/%B) 0/0.5 0.1/0.5 10/80 10.1/99.5 12/99.5. The note with it: stereoisomer not certain.
For the compound `O=C(O)c1cc2c(c3c1c([N+](=O)[O-])cc1ccccc13)OCO2`, the LC retention time is 7.55 min.

As to `CC1OC(OCC2OC(Oc3c(-c4ccc(O)cc4)oc4cc(OC5OC(C)C(O)C(O)C5O)cc(O)c4c3=O)C(O)C(O)C2O)C(O)C(O)C1O` (stereo not given), the LC retention time was 3.4 min.

`CC(C)C(O)(C(=O)OCC1CC[N+]2([O-])CCCC12)C(C)O` (stereo not given): the LC retention time was 3.11 min.

For the compound `O=C1CC(c2ccc(O)c(O)c2)Oc2c1c(OC1OC(CO)C(O)C(O)C1O)cc(O)c2C1OCC(O)C(O)C1O` (stereo not given), the LC retention time is 3.22 min.

Regarding `CCC(O)(C(=O)O)c1cc2n(c(=O)c1COC(C)=O)Cc1cc3ccccc3nc1-2` (stereo not given), the LC retention time was 5.4 min.

On to `COc1cc2c(cc1OC)C(C)=NCC2`, for which the LC retention time is 2.93 min.

For `CCCCCCCCC=CCCCCCCCC(=O)OCC(O)COP(=O)([O-])OCC[NH3+]` (stereo not given), the LC retention time was 10.2 min.

On to `CCCCC(=O)OC1C(CO)OC(OC2(CO)OC(CO)C(OC(C)=O)C2O)C(OC(=O)CCC)C1OC(=O)CCCC` (stereo not given), for which the LC retention time is 8.04 min.

For `CC1CCC2(OC1)OC1C(O)C3C4CCC5CC(OC6OC(CO)C(OC7OC(CO)C(O)C(OC8OCC(O)C(O)C8O)C7OC7OC(CO)C(O)C(OC8OC(CO)C(O)C(O)C8O)C7O)C(O)C6O)C(O)CC5(C)C4CCC3(C)C1C2C` (stereo not given), the LC retention time is 6.99 min.

As to `O=C([O-])CC(=O)OCC1OC(OC2Cc3c(O)cc(O)cc3[O+]=C2c2ccc(O)cc2)C(O)C(O)C1O` (stereo not given), the LC retention time is 4.88 min.

In the case of `OCC1OC(OCC2OC(OCC3OC(OC4(CO)OC(CO)C(O)C4O)C(O)C(O)C3O)C(O)C(O)C2O)C(O)C(O)C1O` (stereo not given), the LC retention time is 1.69 min.

For the compound `C=CC1C(OC2OC(CO)C(O)C(O)C2O)OC=C2C(=O)N3CCc4c([nH]c5ccccc45)C3CC21` (stereo not given), the LC retention time is 5.56 min.

In the case of `CC(C)=CCCC(C)(OC1OC(CO)C(O)C(O)C1O)C1CCC2(C)C1C(O)CC1C3(C)CCC(O)C(C)(C)C3C(OC3OC(CO)C(O)C(O)C3O)CC12C` (stereo not given), the LC retention time was 4.8 min.

Consider `CCCCCCC(O)CC=CCCCCCCCC(=O)O` (stereo not given), for which the LC retention time is 10.1 min.

For the compound `COc1cc(-c2cc(=O)c3c(O)cc(OC4OC(C(=O)O)C(O)C(O)C4OC4OC(C(=O)O)C(O)C(O)C4O)cc3o2)ccc1O` (stereo not given), the LC retention time is 4.05 min.

For `CC1(C(=O)O)CCC2(C)CCC3(C)C(=CC(=O)C4C5(C)CCC(OC6OC(C(=O)O)C(O)C(O)C6OC6OC(C(=O)O)C(O)C(O)C6O)C(C)(CO)C5CCC43C)C2C1` (stereo not given), the LC retention time was 6.36 min.

Regarding `CC1OC(OCC2OC(Oc3cc(O)c4c(c3)OC(c3ccc(O)c(O)c3)CC4=O)C(O)C(O)C2O)C(O)C(O)C1O` (stereo not given), the LC retention time was 3.92 min.

Turning to `O=C(C=Cc1ccc(O)c(O)c1)OC1CC(OC(=O)C=Cc2ccc(O)c(O)c2)(C(=O)O)CC(O)C1O` (stereo not given), the LC retention time was 3.49 min.

With `C=CCc1ccc(O)c(-c2cc(CC=C)ccc2O)c1`, the LC retention time was 9.21 min.

In the case of `CC1OC(OC2C(OC3C(OC4CCC5(C)C(CCC6(C)C5CC=C5C7CC(C)(C)CC(O)C7(C)CCC56C)C4(C)CO)OC(C(=O)O)C(O)C3O)OC(C(=O)O)C(O)C2O)C(O)C(O)C1O` (stereo not given), the LC retention time was 7.06 min.
